Measured values taken from the supplement of paper PMC10290057.
Counter-ions that a name gives are not always drawn.

These compounds were tested on HCT116 (assay: efficacy (fitted maximal change in viability relative to DMSO control); higher = less cytotoxic (negative = loss of viability)). Details: 48 h.
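Note: Luminescence-based viability readout, five doses per compound, normalized against on-plate DMSO and empty-well controls, followed by dose-response curve fitting for every drug.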

Compared with `CCOC(=O)N[C@@H]1CC[C@@H]2[C@@H](C1)C[C@H]1C(=O)O[C@H](C)[C@H]1[C@H]2/C=C/c1ccc(-c2cccc(F)c2)cn1` [Vorapaxar], `Cc1ncc(Cl)cc1NCc1ccc(C(=O)NC(CC2CCCC2)C(=O)NC2CC2)s1` (stereo unspecified) is lower in efficacy: -40.6% for the first, -78.2% for the second.

Compared with `Fc1ccc(Cl)cc1-c1nc(Nc2ccncc2)c2nccnc2n1` [SD-208], `CC(C)(C)[S+](=O)([O-])c1ccc2nccc(Nc3n[nH]c4ccc(F)cc34)c2c1` [GSK-583] is lower in efficacy: -22.5% for the first, -39.1% for the second.

First: COC1=CC=C(Cl)C=C1\C2=C\C(=O)NC(=S)N2CC(N)=O
Second: CCn1c(=O)c2c(nc(/C=C/c3ccc(OC)c(OC)c3)n2C)n(CC)c1=O [Istradefylline]
The efficacy of the first is lower: -13.9% for the first, -9.26% for the second.

First: COc1ccc(C2CNC(=O)C2)cc1OC1CCCC1 (stereo unspecified) [Rolipram]
Second: CC1(C)CC(=O)c2c(C(F)(F)F)nn(-c3ccc(C(N)=O)c(NC4CCC(O)CC4)c3)c2C1 (stereo unspecified) [SNX-2112]
The efficacy of the first is higher: -7.4% for the first, -53.8% for the second.

First: C[C@]\12CC[C@H](O)CC1=C/C[C@@H]3[C@@H]2CC[C@@]\4(C)[C@H]3C\C=C4C5=CN=CC=C5 [Abiraterone]
Second: C#C[C@]1(O)CC[C@H]2[C@@H]3CCc4cc(OC)ccc4[C@H]3CC[C@@]21C [Mestranol]
The efficacy of the first is higher: 7.6% for the first, -33.5% for the second.

First: OCc1ccccc1O[C@@H]1O[C@H](CO)[C@@H](O)[C@H](O)[C@H]1O [Salicin]
Second: NC[C@H]1O[C@H](O[C@H]2[C@H](O)[C@@H](O[C@H]3O[C@H](CO)[C@@H](O)[C@H](N)[C@H]3O)[C@H](N)C[C@@H]2N)[C@H](N)C[C@@H]1O [Tobramycin]
The efficacy of the first is higher: 14% for the first, -8.81% for the second.

Going from `CC(C)[C@H]1C(=O)N[C@@H](CCCN=C(N)N)C(=O)NCC(=O)N[C@@H](CC(=O)O)C(=O)N[C@H](Cc2ccccc2)C(=O)N1C` [Cilengitide] to `CCC(C)CCCCC(=O)N[C@@H](CCN)C(=O)NC(C(=O)N[C@H](CCN)C(=O)N[C@@H]1CCNC(=O)C([C@@H](C)O)NC(=O)[C@@H](CCN)NC(=O)[C@@H](CCN)NC(=O)[C@@H](CC(C)C)NC(=O)[C@H](Cc2ccccc2)NC(=O)[C@H](CCN)NC1=O)[C@@H](C)O` (stereo partly specified) [Polymyxin B sulphate], the efficacy rises from -11% to -10.6%.

Going from `CN[C@@H](C)[C@H]1[C@H](O)C[C@@]2(C)[C@@H]3CC[C@H]4C(C)(C)[C@@H](NC)CC[C@@]45C[C@@]35CC[C@]12C` [Cyclovirobuxin D] to `CC1(C)O[C@@H]2C[C@H]3[C@@H]4C[C@H](F)\C5=C\C(=O)\C=C/[C@]5(C)[C@H]4[C@@H](O)C[C@]3(C)[C@@]2(O1)C(=O)CO` [FLUNISOLIDE], the efficacy rises from -29.5% to -18.4%.

First: CC(C)NCC(O)COc1ccc(CCOCC2CC2)cc1 (stereo unspecified) [Betaxolol]
Second: CCOCOC[C@H](C[C@H](C)C(=O)NO)NC(=O)c1ccc(Oc2ccccc2)cc1 [ONO-4817]
The efficacy of the first is higher: -9.42% for the first, -33.1% for the second.

Going from `C[C@H](Nc1nc(N[C@H](C)C(F)(F)F)nc(-c2cccc(Cl)n2)n1)C(F)(F)F` [AG-881] to `CC(C)(CNC(=O)c1cccc(-c2noc(C(F)(F)F)n2)c1)c1coc(-c2ccccc2)n1` [TMP-195], the efficacy rises from -28.1% to -21.4%.

Compared with `Cc1cc(O)c2c(c1)C(=O)c1cccc(O)c1C2=O` [Chrysophanol], `Cc1c[nH]c(/C=C2\C(=O)Nc3ccccc32)c1CCC(=O)O` [SU-5402] is lower in efficacy: -8.65% for the first, -32.1% for the second.

Compared with `CCOC1=CC=C(C=C1)N2C(=O)C3=CC=CN=C3/N=C2/[C@@H](C)N(CC4=CC=CN=C4)C(=O)CC5=CC=C(F)C(=C5)C(F)(F)F`, `COc1ccc(CC2SC(=O)NC2=O)cc1C(=O)NCc1ccc(C(F)(F)F)cc1` (stereo unspecified) [MK-767] is lower in efficacy: -9.22% for the first, -17.2% for the second.

First: C[C@@H]1CN(Cc2ccc(F)cc2)[C@@H](C)CN1C(=O)c1cc2c(C(=O)C(=O)N(C)C)cn(C)c2cc1Cl [Talmapimod]
Second: CN1C(=O)N(c2cc(Cl)cc(Cl)c2)C(=O)[C@]12CN(Cc1cc(C(=O)O)cs1)C[C@H]2c1ccc(C#N)cc1
The efficacy of the first is lower: -32.8% for the first, -6.34% for the second.

Compared with `CC(C)C1CCC(C(=O)N[C@H](Cc2ccccc2)C(=O)O)CC1` (stereo partly specified) [Nateglinide], `CCOC(=O)[C@H](CCc1ccccc1)N[C@@H](C)C(=O)N1CCC[C@H]1C(=O)O` [Enalapril maleate] is lower in efficacy: -11% for the first, -15.7% for the second.

Going from `Cc1c(F)ccc(C(=O)Nc2cc([N+](=O)[O-])ccc2N2CCN(C)CC2)c1Cl` [WDR5-C47] to `CCCCOc1ccc(C(=O)Nc2ccc(F)cc2F)cc1`, the efficacy falls from -7.44% to -14.8%.

First: Cc1cc(C)cc(Oc2ccc(CNC(=O)[C@H](C)N)cc2C)c1 [SGC-2085]
Second: CCOC(=O)Nc1ccc(NCc2ccc(F)cc2)cc1N [Retigabine]
The efficacy of the first is lower: -101% for the first, -11.8% for the second.

Compared with `C[C@]1(C(=O)N(CCCC(=O)O)Cc2cccc(Cl)c2)CCN1C(=O)c1csc2ccccc12` [GLPG-0974], `C\C1=C(/C)C(=O)\C(=C(\C)C1=O)C(CCCCCC(O)=O)C2=CC=CC=C2` (stereo unspecified) [Seratrodast] is higher in efficacy: -21.2% for the first, -11.8% for the second.

First: CC1OC(OC/2=C(/OC3=C(C(=CC(=C3)O)O)C2=O)C4=CC=C(O)C=C4)C(O)C(OC(C)=O)C1OC(C)=O (stereo unspecified) [SL-0101-1]
Second: O=C(CCc1ccc(O)cc1)c1c(O)cc(O)cc1O [Phloretin]
The efficacy of the first is lower: 6.12% for the first, 6.68% for the second.

Compared with `CC1(C)CCC(=C(\C1)C2=CC=C(Cl)C=C2)/CN3CCN(CC3)C4=CC(=C(C=C4)C(=O)N[S+]([O-])(=O)C5=CC=C(NCC6CCOCC6)C(=C5)[N+]([O-])=O)OC7=CN=C8[NH]C=CC8=C7` [Venetoclax (ABT-199)], `Cc1nc(C)c(CN2CCN(C(c3ccc(F)cc3)c3ccc(F)cc3)CC2)nc1C` [CXC-195] is lower in efficacy: -73.3% for the first, -77.3% for the second.

Going from `COc1ccc([S+](=O)([O-])Nc2cc(-c3csc(C#N)c3)ccc2C)cc1` [EL-102] to `Cc1ccc([S+](=O)([O-])OCC(=O)Nc2ccc(C(=O)O)c(O)c2)cc1` [S31-201], the efficacy rises from -62% to -5.21%.

First: Nc1cccc2c1C(=O)N(C1CCC(=O)NC1=O)C2=O (stereo unspecified) [Pomalidomide]
Second: O=C1CCC(N2C(=O)c3ccccc3C2=O)C(=O)N1 (stereo unspecified) [Thalidomide]
The efficacy of the first is higher: -14.1% for the first, -16.7% for the second.

Going from `C=C[C@H]1CN2CCC1C[C@@H]2[C@@H](O)c1ccnc2ccccc12` (stereo partly specified) [Cinchonine dihydrochloride] to `O=C(O)c1ccc(CN2CCC(CN[C@@H]3C[C@H]3c3ccccc3)CC2)cc1`, the efficacy rises from -36.1% to -14.1%.

Going from `CC(C)=CCC/C(C)=C/CC/C(C)=C/CSc1ccccc1C(=O)O` [Salirasib] to `CNC(=O)[C@H](Cc1c[nH]c2ccccc12)NC(=O)[C@@H](CC(=O)NO)CC(C)C` [Ilomastat (GM6001, Galardin)], the efficacy rises from -28.8% to -7.39%.

First: Cc1ncc([N+](=O)[O-])n1CC(C)O (stereo unspecified) [Secnidazole]
Second: Cn1c(=O)c2c(ncn2CC2OCCO2)n(C)c1=O [Doxofylline]
The efficacy of the first is lower: -13.5% for the first, -7.38% for the second.

Going from `CCOP(=O)(OCC)C(C)NC(=O)N(CCCl)N=O` (stereo unspecified) [Fotemustine] to `CC(C)C[C@H](CN)CC(=O)O` [Pregabalin], the efficacy falls from 7.5% to -8.5%.

First: CSCC[C@H](NC(=O)[C@H](Cc1c[nH]c2ccccc12)NC(=O)CCNC(=O)OC(C)(C)C)C(=O)N[C@@H](CC(=O)O)C(=O)N[C@@H](Cc1ccccc1)C(N)=O [Pentagastrin]
Second: CC(=O)O[C@@]12CO[C@@H]1C[C@H](O)[C@@]1(C)C(=O)[C@H](O)C3=C(C)[C@@H](OC(=O)[C@H](O)[C@@H](NC(=O)OC(C)(C)C)c4ccccc4)C[C@@](O)([C@@H](OC(=O)c4ccccc4)[C@H]21)C3(C)C [Docetaxel]
The efficacy of the first is higher: -5.16% for the first, -56.4% for the second.

Compared with `C=Cc1cc(O)cc2nc(-c3ccc(O)c(F)c3)oc12` [Prinaberel], `CCCCOCCOc1nc(-c2ccc(C(=O)O)c(F)c2)sc1C` is higher in efficacy: -14.8% for the first, -10% for the second.

First: NC/1=N/C(=O)N/C=C1F [Flucytosine]
Second: NC(=O)c1ccc2[nH]ccc2c1 [SD-169]
The efficacy of the first is higher: -10.7% for the first, -11.3% for the second.

First: CC(C)C(N)C(=O)OCC(CO)OC[N]1C=NC2=C1N\C(=N/C2=O)N (stereo unspecified) [Cymeval]
Second: Nc1nc(Cl)nc2c1ncn2[C@@H]1O[C@H](CO)[C@@H](O)[C@@H]1F [Clofarabine]
The efficacy of the first is higher: -19.5% for the first, -51.1% for the second.

First: COc1ccc(CNC(=O)c2cc(-c3cncc(Cl)c3)cnc2-c2ccccn2)nc1OC [MK-1064]
Second: C[S+](=O)([O-])c1ccc(C(=O)Nc2ccc(Cl)c(-c3ccccn3)c2)c(Cl)c1 [Vismodegib]
The efficacy of the first is higher: 12.4% for the first, -23.8% for the second.

First: CC(=O)Nc1ccc(C(=O)NC(C)(C)C)cc1 [CPI-1189]
Second: O=C(NCC(=O)N1CCCC1)Nc1ccc2cnccc2c1 [SGC-707]
The efficacy of the first is higher: -10.3% for the first, -18% for the second.

Compared with `CC1=CC2=C(O1)C(=C3OC(=O)\C=C(C)/C3=C2)C` [Trioxsalen], `Cc1c(Cn2c(C)nc3c(C(=O)O)cc(N4CCOCC4)cc32)cccc1C(F)(F)F` is higher in efficacy: -19.8% for the first, -10.9% for the second.

First: CCN(CCCOc1ccc2c(Nc3cc(CC(=O)Nc4cccc(F)c4)[nH]n3)ncnc2c1)CCOP(=O)(O)O [AZD1152]
Second: CCCc1nc(C(C)(C)O)c(C(=O)O)n1Cc1ccc(-c2ccccc2-c2nn[nH]n2)cc1 [Olmesartan]
The efficacy of the first is lower: -24.9% for the first, -6.46% for the second.

First: O=C(/C=C/c1ccc(O)cc1)c1ccc(O)cc1O [Isoliquiritigenin]
Second: O=C(O)c1cc(/N=N/c2ccc(S(=O)(=O)Nc3ccccn3)cc2)ccc1O [Sulfasalazine]
The efficacy of the first is lower: -62% for the first, 8.3% for the second.

Going from `O=C1\C=C/C=C2/[C@H]3CNC[C@H](C3)CN12` [Cytisine] to `ClC1=CC=C2N/C3=N/C(=O)CN3CC2=C1Cl` [Anagrelide], the efficacy rises from -21.9% to -14.6%.

Compared with `CC(C)OC(=O)C(C(=O)OC(C)C)=C1S\C=C/S1` [Malotilate], `CCC(C)CNCC(=O)N1CCc2sccc2C1c1cccc(C)n1` (stereo unspecified) [RUSKI-201] is higher in efficacy: -26.9% for the first, -17% for the second.

Going from `NNCCc1ccccc1.O=S(=O)(O)O` [Phenelzine] to `Cc1cccc(-c2n[nH]cc2-c2ccc3ncccc3n2)n1` [SJN-2511], the efficacy rises from -40.1% to 6.89%.

Compared with `N#CCC1(n2cc(-c3ncnc4[nH]ccc34)cn2)CN(C2CCN(C(=O)c3ccnc(C(F)(F)F)c3F)CC2)C1` [Itacitinib], `CNC1CCCN(C1)C2=C(F)C=C3C(=O)\C(=C/N(C4CC4)C3=C2OC)C(O)=O` (stereo unspecified) [Balofloxacin] is higher in efficacy: -26.4% for the first, -10.2% for the second.
